Reference: patent publication US20240336608A1, “IL4I1 INHIBITORS AND METHODS OF USE” (Merck Sharp & Dohme LLC, priority 2023, published 2024)

Target: T1, recombinant IL4I1 (Homo sapiens, UniProt Q96RQ9)
T1 construct: purchased R&D Systems 5684-AO-020
T1 sequence (Q96RQ9 22-567): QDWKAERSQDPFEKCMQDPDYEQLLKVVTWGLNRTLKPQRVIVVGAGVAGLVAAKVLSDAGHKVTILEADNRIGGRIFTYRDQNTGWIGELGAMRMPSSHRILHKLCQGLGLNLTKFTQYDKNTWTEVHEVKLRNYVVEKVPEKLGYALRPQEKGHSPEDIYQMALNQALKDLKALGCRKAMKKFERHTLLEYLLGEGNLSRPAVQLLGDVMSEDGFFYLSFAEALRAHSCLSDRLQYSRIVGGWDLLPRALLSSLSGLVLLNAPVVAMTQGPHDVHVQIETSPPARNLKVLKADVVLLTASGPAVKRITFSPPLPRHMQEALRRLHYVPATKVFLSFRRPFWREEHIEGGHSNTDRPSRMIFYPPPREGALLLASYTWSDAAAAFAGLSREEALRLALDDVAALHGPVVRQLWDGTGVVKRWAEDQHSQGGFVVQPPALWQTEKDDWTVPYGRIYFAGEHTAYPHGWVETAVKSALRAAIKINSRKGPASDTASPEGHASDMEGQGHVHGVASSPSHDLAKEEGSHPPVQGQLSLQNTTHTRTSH
Test: IL4I1 Enzymatic Assay (Amplex Red/HRP coupled detection of H2O2, fluorescence)
Assay type: biochemical
Conditions: 1 nM recombinant IL4I1; four-hour pre-incubation with compound; 1 mM each Phe, Tyr, Trp; ten-point titration
How it was run: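 H2O2 output was coupled to resorufin fluorescence (ex 544/em 590) via 0.05 mM Amplex Red and 1 U/mL HRP. Substrate: Phe, Tyr, Trp at 1 mM each; enzyme 1 nM, 4 h compound pre-incubation, 120 min reaction, pH 7.0 Hepes. EC50 by nonlinear four-parameter regression, 1:3 ten-point titration.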

SMILES	EC50 [nM]
C[C@H](O)Cn1cc(C(=O)NCc2nnc(-c3ccccc3)s2)nn1 [Example 128, (S)-1-(2-hydroxypropyl)-N-((5-phenyl-1,3,4-thiadiazol-2-yl)methyl)-1H-1,2,3-triazole-4-carboxamide]	27
O=C(NCc1nnc(-c2ccccc2)s1)c1cn(C2(C(F)F)CC2)nn1 [Example 152, 1-(1-(difluoromethyl)cyclopropyl)-N-((5-phenyl-1,3,4-thiadiazol-2-yl)methyl)-1H-1,2,3-triazole-4-carboxamide]	167
O=C(NCc1nnc(-c2ccccc2)s1)c1cn(-c2cn[nH]c2)nn1 [Example 287, N-((5-phenyl-1,3,4-thiadiazol-2-yl)methyl)-1-(1H-pyrazol-4-yl)-1H-1,2,3-triazole-4-carboxamide]	9

More lines, in order of falling EC50, values ahead:

EC50 [nM]	SMILES
92	CC1CC1n1cc(C(=O)NCc2nnc(-c3ccccc3)s2)nn1 (single isomer, unassigned) [Example 133, Cis-1-(2-methylcyclopropyl)-N-((5-phenyl-1,3,4-thiadiazol-2-yl)methyl)-1H-1,2,3-triazole-4-carboxamide]
10	CC(C)n1cc(C(=O)NCc2nnc(-c3ccncc3)s2)nn1 [Example 269, 1-isopropyl-N-((5-(pyridin-4-yl)-1,3,4-thiadiazol-2-yl)methyl)-1H-1,2,3-triazole-4-carboxamide]
